Results: the NIST ThermoML archive (doi:10.1021/je500513b)

Test: mn = molality of the nth substance listed, in mol/kg
Details: for surface tension liquid-gas: Pendant drop shape; for electrical conductivity: 100 kPa, Liquid, Mettler Toledo inLab 710

CCCCCCCCCCCC[N+](C)(C)CCCC[N+](C)(C)CCCCCCCCCCCC.[Br-].[Br-] + O
Details | electrical conductivity [S/m] | surface tension liquid-gas [mN/m]
298.15 K, m1 = 0.0001 | – | 60.26
298.15 K, m1 = 0.0002 | – | 54.58
298.15 K, m1 = 0.0004 | – | 47.36
298.15 K, m1 = 0.0006 | – | 42.42
298.15 K, m1 = 0.0007 | – | 40.35
298.15 K, m1 = 0.0008 | – | 38.82
298.15 K, m1 = 0.00085 | – | 38.23
298.15 K, m1 = 0.0009 | – | 36.43
298.15 K, m1 = 0.001 | – | 35.92
298.15 K, m1 = 0.0011 | – | 35.45
298.15 K, m1 = 0.0012 | – | 35.19
298.15 K, m1 = 0.0015 | – | 35.13
298.15 K, m1 = 0.002 | – | 35.1
298.15 K, m1 = 0.56 | 1.13 | –
298.15 K, m1 = 0.59 | 1.2 | –
298.15 K, m1 = 0.63 | 1.28 | –
298.15 K, m1 = 0.67 | 1.36 | –
298.15 K, m1 = 0.7 | 1.42 | –
298.15 K, m1 = 0.74 | 1.5 | –
298.15 K, m1 = 0.78 | 1.57 | –
298.15 K, m1 = 0.83 | 1.66 | –
298.15 K, m1 = 0.87 | 1.73 | –
298.15 K, m1 = 0.91 | 1.79 | –
298.15 K, m1 = 0.95 | 1.86 | –
298.15 K, m1 = 1 | 1.93 | –
298.15 K, m1 = 1.05 | 2 | –
298.15 K, m1 = 1.11 | 2.06 | –
298.15 K, m1 = 1.18 | 2.13 | –
298.15 K, m1 = 1.25 | 2.2 | –
298.15 K, m1 = 1.33 | 2.25 | –
298.15 K, m1 = 1.43 | 2.32 | –
298.15 K, m1 = 1.54 | 2.39 | –
298.15 K, m1 = 1.67 | 2.46 | –
298.15 K, m1 = 1.82 | 2.53 | –
298.15 K, m1 = 2 | 2.63 | –
303.15 K, m1 = 0.57 | 1.32 | –
303.15 K, m1 = 0.63 | 1.43 | –
303.15 K, m1 = 0.67 | 1.53 | –
303.15 K, m1 = 0.7 | 1.61 | –
303.15 K, m1 = 0.74 | 1.69 | –
303.15 K, m1 = 0.78 | 1.78 | –
303.15 K, m1 = 0.83 | 1.86 | –
303.15 K, m1 = 0.87 | 1.93 | –
303.15 K, m1 = 0.91 | 2.01 | –
303.15 K, m1 = 0.95 | 2.1 | –
303.15 K, m1 = 1 | 2.18 | –
303.15 K, m1 = 1.05 | 2.25 | –
303.15 K, m1 = 1.11 | 2.34 | –
303.15 K, m1 = 1.18 | 2.41 | –
303.15 K, m1 = 1.25 | 2.47 | –
303.15 K, m1 = 1.33 | 2.56 | –
303.15 K, m1 = 1.43 | 2.63 | –
303.15 K, m1 = 1.54 | 2.72 | –
303.15 K, m1 = 1.67 | 2.8 | –
303.15 K, m1 = 1.74 | 2.84 | –
303.15 K, m1 = 2 | 2.99 | –
308.15 K, m1 = 0.56 | 1.42 | –
308.15 K, m1 = 0.59 | 1.5 | –
308.15 K, m1 = 0.63 | 1.59 | –
308.15 K, m1 = 0.67 | 1.69 | –
308.15 K, m1 = 0.7 | 1.76 | –
308.15 K, m1 = 0.74 | 1.85 | –
308.15 K, m1 = 0.78 | 1.95 | –
308.15 K, m1 = 0.83 | 2.06 | –
308.15 K, m1 = 0.87 | 2.14 | –
308.15 K, m1 = 0.91 | 2.22 | –
308.15 K, m1 = 0.95 | 2.32 | –
308.15 K, m1 = 1 | 2.41 | –
308.15 K, m1 = 1.05 | 2.51 | –
308.15 K, m1 = 1.11 | 2.62 | –
308.15 K, m1 = 1.18 | 2.71 | –
308.15 K, m1 = 1.25 | 2.8 | –
308.15 K, m1 = 1.33 | 2.9 | –
308.15 K, m1 = 1.43 | 2.98 | –
308.15 K, m1 = 1.54 | 3.08 | –
308.15 K, m1 = 1.67 | 3.16 | –
308.15 K, m1 = 1.82 | 3.27 | –
308.15 K, m1 = 2 | 3.39 | –
313.15 K, m1 = 0.62 | 1.66 | –
313.15 K, m1 = 0.66 | 1.78 | –
313.15 K, m1 = 0.7 | 1.91 | –
313.15 K, m1 = 0.74 | 2 | –
313.15 K, m1 = 0.78 | 2.12 | –
313.15 K, m1 = 0.83 | 2.24 | –
313.15 K, m1 = 0.89 | 2.38 | –
313.15 K, m1 = 0.95 | 2.54 | –
313.15 K, m1 = 1 | 2.64 | –
313.15 K, m1 = 1.05 | 2.76 | –
313.15 K, m1 = 1.11 | 2.87 | –
313.15 K, m1 = 1.18 | 3.01 | –
313.15 K, m1 = 1.25 | 3.13 | –
313.15 K, m1 = 1.33 | 3.24 | –
313.15 K, m1 = 1.43 | 3.34 | –
313.15 K, m1 = 1.54 | 3.46 | –
313.15 K, m1 = 1.67 | 3.58 | –
313.15 K, m1 = 1.74 | 3.64 | –
313.15 K, m1 = 1.82 | 3.7 | –
313.15 K, m1 = 1.9 | 3.77 | –
313.15 K, m1 = 2 | 3.84 | –
318.15 K, m1 = 0.61 | 1.79 | –
318.15 K, m1 = 0.65 | 1.91 | –
318.15 K, m1 = 0.69 | 2.05 | –
318.15 K, m1 = 0.74 | 2.19 | –
318.15 K, m1 = 0.78 | 2.33 | –
318.15 K, m1 = 0.83 | 2.45 | –
318.15 K, m1 = 0.89 | 2.61 | –
318.15 K, m1 = 0.95 | 2.78 | –
318.15 K, m1 = 1 | 2.9 | –
318.15 K, m1 = 1.05 | 3.04 | –
318.15 K, m1 = 1.11 | 3.18 | –
318.15 K, m1 = 1.18 | 3.33 | –
318.15 K, m1 = 1.25 | 3.47 | –
318.15 K, m1 = 1.33 | 3.61 | –
318.15 K, m1 = 1.43 | 3.76 | –
318.15 K, m1 = 1.54 | 3.91 | –
318.15 K, m1 = 1.67 | 4.04 | –
318.15 K, m1 = 1.74 | 4.11 | –
318.15 K, m1 = 1.82 | 4.19 | –
318.15 K, m1 = 1.9 | 4.26 | –
318.15 K, m1 = 2 | 4.32 | –
323.15 K, m1 = 0.57 | 1.86 | –
323.15 K, m1 = 0.61 | 1.97 | –
323.15 K, m1 = 0.65 | 2.09 | –
323.15 K, m1 = 0.69 | 2.24 | –
323.15 K, m1 = 0.74 | 2.4 | –
323.15 K, m1 = 0.78 | 2.55 | –
323.15 K, m1 = 0.83 | 2.72 | –
323.15 K, m1 = 0.89 | 2.87 | –
323.15 K, m1 = 0.95 | 3.03 | –
323.15 K, m1 = 1 | 3.16 | –
323.15 K, m1 = 1.05 | 3.31 | –
323.15 K, m1 = 1.11 | 3.47 | –
323.15 K, m1 = 1.18 | 3.66 | –
323.15 K, m1 = 1.25 | 3.84 | –
323.15 K, m1 = 1.33 | 4.03 | –
323.15 K, m1 = 1.43 | 4.21 | –
323.15 K, m1 = 1.54 | 4.38 | –
323.15 K, m1 = 1.6 | 4.48 | –
323.15 K, m1 = 1.67 | 4.57 | –
323.15 K, m1 = 1.74 | 4.65 | –
323.15 K, m1 = 1.82 | 4.73 | –
323.15 K, m1 = 1.9 | 4.81 | –
323.15 K, m1 = 2 | 4.89 | –

O [water] + CCCCCCCCCCCC[N+](C)(C)CCC[N+](C)(C)CCCCCCCCCCCC.[Br-].[Br-]
Details | surface tension liquid-gas [mN/m]
298.15 K, m2 = 0 | 71.98
